Tested on: RBC arachidonic acid
Test: Red blood cell (RBC) EPA incorporation and arachidonic acid analysis in patients given ethyl-EPA
Type: in vivo, human
Details: patients, 0.5, 1, 2 or 4 g of 97% pure ethyl-EPA/day for 12 weeks; FIG. 1, average of several clinical studies
Procedure: An analysis was performed to assess the impact of red blood cell (RBC) EPA incorporation on arachidonic acid formation. In various studies, patients were randomized, on a double-blind basis, to receive either placebo (liquid paraffin) or 0.5 1, 2 or 4 g of 97% pure ethyl-EPA/day for 12 weeks. All the doses were administered in eight identical appearing capsules. RBCs were analyzed for EPA and AA following in general the methodology of Manku et al. M. S. Manku, D. F. Horrobin, Y. S. Huang and N. Morse, Fatty acids in plasma and red cell membranes in normal humans. Lipids 18 (1983), pp. 906-908).
Venous blood was collected into a tube pretreated with EDTA and centrifuged at 1500 gav for 15 min. The plasma layer and the buffy coat were separated off and the red cells washed with an equal volume of 0.9% saline. Samples were stored at −80° C. prior to analysis. On thawing, the RBCs were suspended in NaCL/H2SO4aq. (17 mmol/l NaCl, 1 mmol/l Sulfuric acid, 1.8 ml), then shaken with methanol (3 ml). Chloroform (6 ml) and C17:O internal standard were added and the sample was stirred vigorously using a vortex mixer. […] The resulting methyl esters of the fatty acids were separated and measured using a Hewlett-Packard HP5890 Series II Plus Gas chromatograph (cp-wax 52CB 25 m capillary column, Chrompack UK). […]

RBC EPA: increased
SMILES: CC/C=C\C/C=C\C/C=C\C/C=C\C/C=C\CCCC(=O)OCC [EPA, eicosapentaenoic acid ethyl ester]

Source: patent US10314803B2, “Pharmaceutical composition comprising eicosapentaenoic acid and nicotinic acid and methods of using same” (Amarin Pharmaceuticals Ireland Limited, priority 2008, dated 2019)
